Results: patent US10980851B2, “Topical skincare compositions comprising Centella asiatica selected triterpenes” (The Procter & Gamble Company, priority 2018, dated 2021)

Test system: gene expression in tert keratinocytes
Experiment: Signature free connectivity mapping (C-map) similarity to CAST
Conditions: Concentration Tested 0.01% (wt. %); Fisher Discriminant Analysis
Source text: Signature Free Method of Querying Perturbagens Using Connectivity Mapping to Test Similarity Among Different Varieties of Perturbagens
The signature-free query method describes methodologies for identifying gene expression similarities among different perturbagens, such as cosmetic actives and/or natural extracts in an already existing tert connectivity map database. “Connectivity map” and “C-map” refer broadly to devices, systems, articles of manufacture, and methodologies for identifying relationships between cellular phenotypes or cosmetic conditions, gene expression, and perturbagens, such as cosmetic actives. […]
The tert C-map database consists of normalized gene expression data of approximately 3200 perturbagens. […] For each individual perturbagen, the output of the normalization includes an expression value for each probe analyzed in the gene expression profiling experiment. […]
The data matrix is analyzed using multivariate statistical analysis. Though described herein with reference to regularized Fisher Discriminant Analysis using a kernel version of the projection matrix, those of ordinary skill in the art will readily appreciate that other forms of multivariate statistical analysis may be employed in other embodiments. […]

Compound	Similarity (distance) Score from CAST
C[C@H]1[C@H](C)CC[C@]2(C(=O)O)CC[C@]3(C)C(=CC[C@@H]4[C@@]5(C)C[C@@H](O)[C@H](O)[C@@](C)(CO)[C@@H]5[C@H](O)C[C@]43C)[C@H]12 [Madecassic acid]	0.770
Madecassoside	−0.031
